What was measured:
[1] = test system: HIF-1α; test: HIF-1α expressions of the NSCs, Western blot; format: cell-based, mice
Protocol: (§1) To prepare the NSCs, after removal of meninges, subventricular zones (SVZ) of lateral ventricles from adult mice brain (4 week-of-age) are aseptically isolated and dissociated as previously described (J Cell Sci 2006; 119, 4467-4474). All steps are operated under sterile conditions. Then, neurosphere culture are prepared in neurobasal (NB) medium (Gibco BRL) supplemented with 2% of B27 (Gibco BRL), 2 mM of L-glutamine (PAN Biotech), 100 U/ml of penicillin/0.1 […] of streptomycin (Gibco BRL). For maintenance and expansion of the cultures, the NB/B27 is further supplemented with 2 μg/mL of heparin (Sigma), 20 ng/mL of FGF-2 (R&D Systems) and 20 ng/mL of EGF (R&D Systems). Neurosphere cultures are maintained at 37° C. in a humidified incubator with 5% CO2. For clonal/low density cultures, primary neurospheres grown at high density are dissociated into a single cell suspension and reseeded into 96-well plates at 100 cells per ml of media and the number of newly formed neurospheres is counted after 7 days. In addition, the Bmi-1 expressions, SOX2 expressions, Nestin expressions, Musashi-1 expressions, BrdU expressions and ki-67 expressions of the newly formed neurospheres are determined by the immunofluorescence staining. […]
(§2) The NSCs are exposed to the various dosages of the Compound 1 (0.1 μM, 1 μM, 10 μM and 100 μM) and cultured in the neurosphere culture. The HIF-1α expressions and the Bmi-1 expressions of the NSCs are detected by the Western blot analysis. […]
(§3) In another example, the HIF-1α expressions of the NSCs are inhibited and then 1 μM of the Compound 1 is added into the medium of the NSCs. The HIF-1α expression and the Bmi-1 expressions of the NSCs are detected by the Western blot analysis. […]
(§4) In still another example, the NSCs are exposed to 1 μM of the Compound 1 and further cultured for various lengths of time (0.5 hour, 1 hour, 4 hours, 8 hours, 16 hours and 24 hours). The HIF-1α expressions and the Bmi-1 expressions of the NSCs are detected by the Western blot analysis. […]

[2] = test system: Bmi-1; test: Bmi-1 expressions of the NSCs, Western blot; format: cell-based, mice
Protocol: as §1, §2, §3, §4

[3] = test system: ischemic rats; test: Volume of the infarction after cerebral ischemia, magnetic resonance imaging (MRI); format: in vivo, Sprague-Dawley (SD) rats
Description: (§5) The ischemic rats are induced by an ischemia-reperfusion model to simulate transient focal cerebral ischemia in rats. Test animals are male Sprague-Dawley (SD) rats weighing 250-300 g. The rats are anesthetized with chloral hydrate (0.4 g/kg IP) and subjected to cerebral ischemia. The ischemia-reperfusion model is induced by ligations of bilateral common carotid arteries (CCAs) and a right middle cerebral artery (MCA). The bilateral CCAs are clamped with non-traumatic arterial clips, and the right MCA is ligated with an 10-0 nylon suture. After 90 minutes ischemia, the suture on the MCA and the arterial clips on CCAs are removed to allow reperfusion. Core body temperature is monitored with a thermistor probe (Hewlett-Packard Model 21090A probe, Hewlett-Packard Company, Andover, Mass.), and maintained at 37° C. with a heating pad during anesthesia. After recovery from anesthesia, rat body temperature is maintained at 37° C. with a heat lamp.
Further, the ischemic rats are assigned into 5 groups, 4 test groups and 1 control group. The ischemic rats of the test groups are injected with 1 mg/kg of the Compound 1, 30 mg/kg of the genipin, 1 mg/kg of the Compound 1 and 100 mg/kg of 2-ME2, and 1 mg/kg of the Compound 1 and the LV-Bmi-1-sh, respectively. The ischemic rats of the control group are injected with the vehicle. At 7 days after the injection, the ischemic rats of the different groups are anesthetized, and the volume of the infarction thereof is assessed by a magnetic resonance imaging (MRI).

[4] = test system: Bmi-1; test: Bmi-1 expressions of the NSCs in the SVZ and the DG of the ischemic rats, immunofluorescence staining; format: in vivo, Sprague-Dawley (SD) rats
[5] = test system: NSC in the brain of the ischemic rats; test: Proliferation marker expressions (BrdU, ki-67) in the SVZ and DG of the ischemic rats; format: in vivo, Sprague-Dawley (SD) rats
Description: as §5
The ischemic rats treated with different dosages of the Compound 1 (0.1 mg/kg, 1 mg/kg and 10 mg/kg) and the ischemic rats reduced the Bmi-1 expressions or the HIF-1α expressions and then treated with 1 mg/kg of the Compound 1 are decapitated, and the brain tissues thereof are performed the immunofluorescence staining to detect the proliferation marker expressions (BrdU and ki-67) in the brains of the ischemic rats.

[6] = 1 μM, 0.5 to 24 hours tested, FIG. 10C
[7] = 0.1, 1, 10, 100 μM, normoxia (21% O2), in particular 1 μM, FIG. 10A
[8] = 1 mg/kg, 7 days after the injection, FIGS. 18A, 18B
[9] = 1 μM 2-ME2 for 16 hours, then 1 μM Compound 1, FIG. 10B
[10] = 2-ME2 treatment plus 1 mg/kg Compound 1

Row | SMILES | exposure time at which the NSCs express the most HIF-1α [1, 6] [h] | HIF-1α expressions of the NSCs [1, 7] | exposure time at which the NSCs express the most Bmi-1 [2, 6] [h] | Bmi-1 expressions of the NSCs [2, 7] | effect on the reduction of the infarction area, compared with genipin ([3]; 1 mg/kg Compound 1 vs 30 mg/kg genipin, 7 days) | area of the largest infarction (MRI) [3, 8] | volume of the infarction (MRI) [3, 8] | number of Bmi-1+Nestin+ NSCs in the SVZ and the DG ([4]; 0.1, 1, 10 mg/kg vs control, in particular 1 mg/kg, FIGS. 14A to 14D) | numbers of BrdU+ cells in the SVZ and the DG of the brains of the ischemic rats ([5]; 0.1, 1, 10 mg/kg vs control, in particular 1 mg/kg, FIGS. 15A to 15D) | numbers of ki-67+ cells in the SVZ and the DG of the brains of the ischemic rats ([5]; 0.1, 1, 10 mg/kg vs control, in particular 1 mg/kg, FIGS. 15E to 15H) | enhancement of the HIF-1α expressions induced by the Compound 1 in NSCs [1, 9] | enhancement of the Bmi-1 expressions induced by the Compound 1 in NSCs [2, 9] | Compound-1-induced reduction of the volume of the infarction (MRI) ([3]; 100 mg/kg 2-ME2 plus 1 mg/kg Compound 1, 7 days) | Compound-1-induced enhancement of Bmi-1+Nestin+ NSCs numbers ([4]; 100 mg/kg 2-ME2 intraperitoneal plus 1 mg/kg Compound 1) | Compound 1 increased numbers of the BrdU+ cells in the SVZ and the DG [5, 10] | Compound 1 increased numbers of the ki-67+ cells in the SVZ and the DG [5, 10]
1 | COC(=O)C1=CO[C@@H](O)[C@@H]2C(COC(=O)[C@@H](N)Cc3ccccc3)=CC[C@H]12 [Compound 1] | 0.5 | increased | 16 | increased | better than that of the genipin | significantly reduced | significantly reduced | significantly increases | significant enhancement | significant enhancement | – | – | – | – | – | –
2 | COc1cc2c(cc1O)CC[C@@H]1[C@@H]2CC[C@]2(C)[C@@H](O)CC[C@@H]12 [Compound 2-ME2, 2-Methoxyestradiol, reference compound] | – | – | – | – | – | – | – | – | – | – | abolished | abolished | abolishes | inhibits | abolishes | abolishes

Reference: patent publication US10035791B2, “Bicyclic compound and pharmaceutical composition thereof for treating stroke and use thereof” (China Medical University, priority 2016, dated 2018)
